Data: the OligoGym collection
HELM strings list units from the 5' end as sugar, base in round brackets, then linkage (d deoxyribose, r ribose, m 2'-O-methyl, p phosphodiester). Strings are as the collection lists them; they lack the last nucleoside at the 3' end of the tested compound. [moe] = 2'-O-(2-methoxyethyl) (MOE); [sp] = phosphorothioate linkage; [m5C] = 5-methylcytosine

Each substance was assayed against GFAP (assay: mouse, dose not given). Details: ASO.

In order of rising 3 h FOB score:
1. RNA1{[moe](G)[sp].[moe]([m5C])p.[moe](A)p.[moe]([m5C])p.[moe](A)[sp].d(G)[sp].d(T)[sp].d(T)[sp].d([m5C])[sp].d([m5C])[sp].d([m5C])[sp].d(A)[sp].d(G)[sp].d(A)[sp].d(T)[sp].[moe](A)p.[moe]([m5C])p.[moe](T)[sp].[moe]([m5C])}$$$$ (last 3' nucleoside missing)  0 score 0-7
2. RNA1{[moe](G)[sp].[moe]([m5C])p.[moe](A)p.[moe]([m5C])p.[moe](A)p.[moe](G)p.d(T)[sp].d(T)[sp].d([m5C])[sp].d([m5C])[sp].d([m5C])[sp].d(A)[sp].d(G)[sp].d(A)[sp].d(T)[sp].d(A)[sp].[moe]([m5C])p.[moe](T)[sp].[moe]([m5C])}$$$$ (last 3' nucleoside missing)  0 score 0-7
3. RNA1{[moe](G)[sp].[moe]([m5C])p.[moe]([m5C])p.[moe](A)p.[moe](A)[sp].d(A)[sp].d(T)[sp].d([m5C])[sp].d([m5C])[sp].d([m5C])[sp].d([m5C])[sp].d(T)[sp].d([m5C])[sp].d(T)[sp].d(T)[sp].[moe]([m5C])p.[moe]([m5C])p.[moe]([m5C])[sp].[moe](A)}$$$$ (last 3' nucleoside missing)  0 score 0-7
4. RNA1{[moe](T)[sp].[moe](G)p.[moe](A)p.[moe](G)p.[moe](T)[sp].d([m5C])[sp].d(T)[sp].d([m5C])[sp].d(A)[sp].d(G)[sp].d(T)[sp].d(T)[sp].d(T)[sp].d(T)[sp].d([m5C])[sp].[moe]([m5C])p.[moe](T)p.[moe]([m5C])[sp].[moe]([m5C])}$$$$ (last 3' nucleoside missing)  0 score 0-7
5. RNA1{[moe](G)[sp].[moe]([m5C])p.[moe](T)p.[moe](T)p.d(T)[sp].d(T)[sp].d(G)[sp].d(A)[sp].d(G)[sp].d(A)[sp].d(T)[sp].d(A)[sp].d(T)[sp].d([m5C])[sp].[moe](T)p.[moe](T)p.[moe](G)p.[moe](T)[sp].[moe](G)}$$$$ (last 3' nucleoside missing)  1 score 0-7
6. RNA1{[moe](G)[sp].[moe]([m5C])p.[moe]([m5C])p.[moe](A)p.[moe](G)p.[moe](T)p.d(G)[sp].d(T)[sp].d([m5C])[sp].d(T)[sp].d(T)[sp].d([m5C])[sp].d(A)[sp].d([m5C])[sp].d(T)[sp].d(T)[sp].[moe](T)p.[moe](G)[sp].[moe]([m5C])}$$$$ (last 3' nucleoside missing)  1 score 0-7
7. RNA1{[moe](G)[sp].[moe]([m5C])p.[moe]([m5C])p.[moe](A)p.[moe](T)[sp].d(T)[sp].d(T)[sp].d(A)[sp].d(T)[sp].d([m5C])[sp].d(T)[sp].d(G)[sp].d(T)[sp].[moe](G)p.[moe]([m5C])p.[moe](T)[sp].[moe](T)}$$$$ (last 3' nucleoside missing)  1 score 0-7
8. RNA1{[moe](T)[sp].[moe](A)p.[moe]([m5C])p.[moe](A)p.[moe](T)[sp].d([m5C])[sp].d([m5C])[sp].d([m5C])[sp].d([m5C])[sp].d(T)[sp].d(T)[sp].d(T)[sp].d([m5C])[sp].d(T)[sp].d([m5C])[sp].[moe](T)p.[moe]([m5C])p.[moe]([m5C])[sp].[moe](T)}$$$$ (last 3' nucleoside missing)  1 score 0-7
9. RNA1{[moe](G)[sp].[moe]([m5C])p.[moe](T)p.[moe](T)p.[moe](T)[sp].d(T)[sp].d(G)[sp].d(A)[sp].d(G)[sp].d(A)[sp].d(T)[sp].d(A)[sp].d(T)[sp].d([m5C])[sp].d(T)[sp].[moe](T)p.[moe](G)p.[moe](T)[sp].[moe](G)}$$$$ (last 3' nucleoside missing)  2 score 0-7
10. RNA1{[moe](G)[sp].[moe]([m5C])p.[moe](T)p.[moe](T)p.[moe](T)p.[moe](T)p.d(G)[sp].d(A)[sp].d(G)[sp].d(A)[sp].d(T)[sp].d(A)[sp].d(T)[sp].d([m5C])[sp].d(T)[sp].d(T)[sp].[moe](G)p.[moe](T)[sp].[moe](G)}$$$$ (last 3' nucleoside missing)  2 score 0-7
11. RNA1{[moe](G)[sp].[moe]([m5C])p.[moe](T)p.[moe]([m5C])p.[moe]([m5C])[sp].d([m5C])[sp].d(A)[sp].d([m5C])[sp].d(A)[sp].d([m5C])[sp].d(T)[sp].d(A)[sp].d([m5C])[sp].d(A)[sp].d(T)[sp].[moe](A)p.[moe](T)p.[moe](A)[sp].[moe](A)}$$$$ (last 3' nucleoside missing)  2 score 0-7
12. RNA1{[moe](G)[sp].[moe]([m5C])p.[moe](T)p.[moe](T)p.[moe](T)[sp].d(T)[sp].d(G)[sp].d(A)[sp].d(G)[sp].d(A)[sp].d(T)[sp].d(A)[sp].d(T)[sp].[moe]([m5C])p.[moe](T)p.[moe](T)[sp].[moe](G)}$$$$ (last 3' nucleoside missing)  3 score 0-7
13. RNA1{[moe](G)[sp].[moe]([m5C])p.[moe](T)p.[moe](T)p.[moe](T)p.[moe](T)p.d(G)[sp].d([m5C])[sp].d([m5C])[sp].d([m5C])[sp].d([m5C])[sp].d([m5C])[sp].d(T)[sp].d(G)[sp].d(T)[sp].d(A)[sp].[moe](G)p.[moe](T)[sp].[moe](G)}$$$$ (last 3' nucleoside missing)  3 score 0-7
14. RNA1{[moe](G)[sp].[moe]([m5C])p.[moe](T)p.[moe](T)p.d(T)[sp].d(T)[sp].d(G)[sp].d([m5C])[sp].d([m5C])[sp].d([m5C])[sp].d([m5C])[sp].d([m5C])[sp].d(T)[sp].d(G)[sp].[moe](T)p.[moe](A)p.[moe](G)p.[moe](T)[sp].[moe](G)}$$$$ (last 3' nucleoside missing)  3 score 0-7
15. RNA1{[moe](T)[sp].[moe](A)p.[moe](G)p.[moe](T)p.d([m5C])[sp].d(A)[sp].d(G)[sp].d([m5C])[sp].d([m5C])[sp].d(T)[sp].d(G)[sp].d(G)[sp].d(T)[sp].d(T)[sp].[moe](A)p.[moe](G)p.[moe]([m5C])p.[moe]([m5C])[sp].[moe](T)}$$$$ (last 3' nucleoside missing)  3 score 0-7
16. RNA1{[moe](T)[sp].[moe](A)p.[moe](T)p.[moe](T)p.[moe](A)[sp].d(G)[sp].d(G)[sp].d(A)[sp].d(T)[sp].d([m5C])[sp].d([m5C])[sp].d([m5C])[sp].d(A)[sp].[moe](T)p.[moe]([m5C])p.[moe](T)[sp].[moe](A)}$$$$ (last 3' nucleoside missing)  3 score 0-7
17. RNA1{[moe](T)[sp].[moe](A)p.[moe](T)p.[moe]([m5C])p.[moe](T)[sp].d(G)[sp].d(T)[sp].d(G)[sp].d([m5C])[sp].d(T)[sp].d(T)[sp].d(T)[sp].d(A)[sp].[moe](G)p.[moe](T)p.[moe](G)[sp].[moe](A)}$$$$ (last 3' nucleoside missing)  3 score 0-7
18. RNA1{[moe](T)[sp].[moe](G)p.[moe](A)p.[moe](G)p.[moe](G)[sp].d([m5C])[sp].d(T)[sp].d(T)[sp].d(T)[sp].d(T)[sp].d(G)[sp].d(A)[sp].d(G)[sp].d(A)[sp].d(T)[sp].[moe](A)p.[moe](T)p.[moe]([m5C])[sp].[moe](T)}$$$$ (last 3' nucleoside missing)  3 score 0-7
19. RNA1{[moe](G)[sp].[moe]([m5C])p.[moe](T)p.[moe](T)p.[moe](T)p.d(T)[sp].d(G)[sp].d([m5C])[sp].d([m5C])[sp].d([m5C])[sp].d([m5C])[sp].d([m5C])[sp].d(T)[sp].d(G)[sp].d(T)[sp].[moe](A)p.[moe](G)p.[moe](T)[sp].[moe](G)}$$$$ (last 3' nucleoside missing)  4 score 0-7
20. RNA1{[moe](T)[sp].[moe](A)p.[moe](G)p.[moe](T)p.[moe]([m5C])p.d(A)[sp].d(G)[sp].d([m5C])[sp].d([m5C])[sp].d(T)[sp].d(G)[sp].d(G)[sp].d(T)[sp].d(T)[sp].d(A)[sp].[moe](G)p.[moe]([m5C])p.[moe]([m5C])[sp].[moe](T)}$$$$ (last 3' nucleoside missing)  4 score 0-7
21. RNA1{[moe](G)[sp].[moe]([m5C])p.[moe]([m5C])p.[moe](T)p.[moe](T)[sp].d([m5C])[sp].d([m5C])[sp].d([m5C])[sp].d(T)[sp].d(T)[sp].d(T)[sp].d([m5C])[sp].d([m5C])[sp].d(T)[sp].d(G)[sp].[moe](T)p.[moe]([m5C])p.[moe](T)[sp].[moe](G)}$$$$ (last 3' nucleoside missing)  5 score 0-7
22. RNA1{[moe](G)[sp].[moe]([m5C])p.[moe](G)p.[moe](A)p.[moe](G)[sp].d([m5C])[sp].d(G)[sp].d(G)[sp].d(A)[sp].d(G)[sp].d(G)[sp].d([m5C])[sp].d([m5C])[sp].d(T)[sp].d(G)[sp].[moe](G)p.[moe](G)p.[moe](T)[sp].[moe](G)}$$$$ (last 3' nucleoside missing)  6 score 0-7
23. RNA1{[moe](G)[sp].[moe]([m5C])p.[moe]([m5C])p.[moe](A)p.[moe](T)[sp].d(T)[sp].d(T)[sp].d(A)[sp].d(T)[sp].d([m5C])[sp].d(T)[sp].d(G)[sp].d(T)[sp].d(G)[sp].d([m5C])[sp].[moe](T)p.[moe](T)p.[moe](T)[sp].[moe](A)}$$$$ (last 3' nucleoside missing)  6 score 0-7
24. RNA1{[moe](T)[sp].[moe](G)p.[moe](A)p.[moe](G)p.[moe](A)[sp].d(T)[sp].d(A)[sp].d(T)[sp].d([m5C])[sp].d(T)[sp].d(T)[sp].d(G)[sp].d(T)[sp].d(G)[sp].d(A)[sp].[moe]([m5C])p.[moe]([m5C])p.[moe](T)[sp].[moe](T)}$$$$ (last 3' nucleoside missing)  6 score 0-7
25. RNA1{[moe](T)[sp].[moe](G)p.[moe](A)p.[moe](G)p.[moe](T)[sp].d(T)[sp].d(T)[sp].d([m5C])[sp].d(T)[sp].d(T)[sp].d(G)[sp].d(T)[sp].d(T)[sp].d(A)[sp].d(G)[sp].[moe](T)p.[moe](T)p.[moe](G)[sp].[moe](G)}$$$$ (last 3' nucleoside missing)  6 score 0-7
26. RNA1{[moe](G)[sp].[moe]([m5C])p.[moe](G)p.[moe](A)p.[moe](T)[sp].d(G)[sp].d(G)[sp].d(A)[sp].d(G)[sp].d([m5C])[sp].d([m5C])[sp].d(T)[sp].d([m5C])[sp].d(A)[sp].d(G)[sp].[moe](G)p.[moe](G)p.[moe](A)[sp].[moe](T)}$$$$ (last 3' nucleoside missing)  7 score 0-7
